Experimental data reported in PubChem BioAssay AID328 (DTP/NCI, 2004).
Values joined by “and” are separate entries in the source; they are usually repeats but may differ in a detail not shown here. Identical values can stand only once. Toxic doses and inconclusive results are not listed. How the source made its calls: active means survival T/C of 150% or more; inactive means T/C below 125% in these data.

Tested on: BDF1 mice, P388 leukemia ip, median survival T/C
Assay: NCI In Vivo Anticancer Drug Screen. Data for tumor model P388 Leukemia (intraperitoneal) in B6D2F1 (BDF1) mice
Conditions: endpoint: median survival time, higher = longer survival
Summary of the method: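 T/C = treated-group survival ÷ vehicle-control survival; tumour transplanted into mice before dosing.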

[1] = dose: 25.0 mg/kg/injection, schedule: Q01DX009 (ip), vehicle: saline with Tween-80
[2] = dose: 3.12 mg/kg/injection, schedule: Q04DX003 (ip), vehicle: water
[3] = dose: 6.25 mg/kg/injection, schedule: Q04DX003 (ip), vehicle: water
[4] = dose: 12.5 mg/kg/injection, schedule: Q04DX003 (ip), vehicle: water
[5] = dose: 25.0 mg/kg/injection, schedule: Q01DX009 (ip), vehicle: water
[6] = dose: 25.0 mg/kg/injection, schedule: Q04DX003 (ip), vehicle: water
[7] = dose: 50.0 mg/kg/injection, schedule: Q01DX009 (ip), vehicle: water
[8] = dose: 50.0 mg/kg/injection, schedule: Q04DX003 (ip), vehicle: water
[9] = dose: 100.0 mg/kg/injection, schedule: Q01DX009 (ip), vehicle: water
[10] = dose: 100.0 mg/kg/injection, schedule: Q01DX009 (ip), vehicle: saline with Tween-80
[11] = dose: 200.0 mg/kg/injection, schedule: Q01DX009 (ip), vehicle: saline with Tween-80
[12] = dose: 50.0 mg/kg/injection, schedule: Q01DX009 (ip), vehicle: saline with Tween-80
[13] = dose: 100.0 mg/kg/injection, schedule: Q04DX003 (ip), vehicle: saline
[14] = dose: 100.0 mg/kg/injection, schedule: Q01DX009 (ip), vehicle: saline
[15] = dose: 200.0 mg/kg/injection, schedule: Q01DX009 (ip), vehicle: saline

Measured: T/C

COc1cccc(C(=O)C=C(C(F)(F)F)C(F)(F)F)c1
inactive: dose: 11.0 mg/kg/injection, schedule: Q01DX009 (ip), vehicle: saline with Tween-80 109 % of control | dose: 16.5 mg/kg/injection, schedule: Q01DX009 (ip), vehicle: saline with Tween-80 109 % of control | [1] 113 % of control

CCOC(=O)CSc1c([N+](=O)[O-])c(C)nn1C
inactive: [2] 110 % of control | [3] 100 % of control and 106 % of control | [4] 92 % of control and 104 % of control | [5] 93 % of control | [6] 88 % of control and 100 % of control | [7] 90 % of control | [8] 97 % of control and 100 % of control and 113 % of control | [9] 93 % of control | dose: 100.0 mg/kg/injection, schedule: Q04DX003 (ip), vehicle: water 101 % of control and 104 % of control | dose: 200.0 mg/kg/injection, schedule: Q01DX009 (ip), vehicle: water 101 % of control | dose: 200.0 mg/kg/injection, schedule: Q04DX003 (ip), vehicle: water 109 % of control | dose: 400.0 mg/kg/injection, schedule: Q01DX009 (ip), vehicle: water 101 % of control | dose: 400.0 mg/kg/injection, schedule: Q04DX003 (ip), vehicle: water 103 % of control

CCCCCCCSc1ncnc2nc[nH]c12
inactive: [10] 100 % of control | dose: 100.0 mg/kg/injection, schedule: Q04DX003 (ip), vehicle: saline with Tween-80 86 % of control | [11] 86 % of control | dose: 200.0 mg/kg/injection, schedule: Q04DX003 (ip), vehicle: saline with Tween-80 95 % of control | dose: 400.0 mg/kg/injection, schedule: Q01DX009 (ip), vehicle: saline with Tween-80 109 % of control | dose: 400.0 mg/kg/injection, schedule: Q04DX003 (ip), vehicle: saline with Tween-80 100 % of control

Cc1cc(=O)c2c(C)cccc2[nH]1
inactive: dose: 6.25 mg/kg/injection, schedule: Q04DX003 (ip), vehicle: saline sonified 104 % of control | dose: 12.5 mg/kg/injection, schedule: Q04DX003 (ip), vehicle: saline sonified 109 % of control | [1] 113 % of control | dose: 25.0 mg/kg/injection, schedule: Q04DX003 (ip), vehicle: saline sonified 100 % of control

Cc1cc(O)c(C(c2ccc(N(C)C)cc2Cl)c2c(O)cc(C)[nH]c2=O)c(=O)[nH]1
inactive: [12] 99 % of control | [10] 115 % of control

C1CC[N-]CC1.C1CC[N-]CC1.O=C(CC(=O)C(F)(F)F)C(F)(F)F.O=C(CC(=O)C(F)(F)F)C(F)(F)F.[Ni+2]
inactive: dose: 25.0 mg/kg/injection, schedule: Q04DX003 (ip), vehicle: saline 104 % of control | dose: 50.0 mg/kg/injection, schedule: Q04DX003 (ip), vehicle: saline 108 % of control | [13] 104 % of control

CCCCCCOC(CN(C)C)C(Cl)(Cl)Cl (stereo not drawn)
inactive: [12] 124 % of control | [10] 107 % of control | [11] 116 % of control

c1cc[c]([Pb]([c]2ccccc2)([c]2ccccc2)[n]2ccc3ccccc32)cc1
inactive: dose: 0.78 mg/kg/injection, schedule: Q01DX009 (ip), vehicle: saline 100 % of control | dose: 1.05 mg/kg/injection, schedule: Q01DX009 (ip), vehicle: Klucel (hydroxypropylcellulose) (HPC) 103 % of control | dose: 1.05 mg/kg/injection, schedule: Q01DX009 (ip), vehicle: other 108 % of control | dose: 2.05 mg/kg/injection, schedule: Q01DX009 (ip), vehicle: saline 115 % of control | dose: 2.08 mg/kg/injection, schedule: Q01DX009 (ip), vehicle: Klucel (hydroxypropylcellulose) (HPC) 94 % of control | dose: 2.08 mg/kg/injection, schedule: Q01DX009 (ip), vehicle: other 108 % of control and 109 % of control | dose: 3.12 mg/kg/injection, schedule: Q01DX009 (ip), vehicle: Klucel (hydroxypropylcellulose) (HPC) 108 % of control | dose: 3.12 mg/kg/injection, schedule: Q01DX009 (ip), vehicle: other 100 % of control | dose: 4.68 mg/kg/injection, schedule: Q01DX009 (ip), vehicle: Klucel (hydroxypropylcellulose) (HPC) 109 % of control

COc1cc(O)c(Cc2ccccc2O)c(O)c1C(=O)CCc1ccccc1
inactive: dose: 0.5 mg/kg/injection, schedule: Q01DX009 (ip), vehicle: alcohol 100 % of control | dose: 2.0 mg/kg/injection, schedule: Q01DX009 (ip), vehicle: alcohol 105 % of control | dose: 4.0 mg/kg/injection, schedule: Q01DX009 (ip), vehicle: alcohol 97 % of control | dose: 5.9 mg/kg/injection, schedule: Q01DX009 (ip), vehicle: alcohol 119 % of control | dose: 9.0 mg/kg/injection, schedule: Q01DX009 (ip), vehicle: alcohol 101 % of control

O=C1CCS2(CCC(=O)O2)O1
inactive: dose: 50.0 mg/kg/injection, schedule: Q01DX009 (ip), vehicle: saline 98 % of control | [14] 94 % of control | [15] 98 % of control

CN1CCc2cc3c4cc2C1Cc1ccc(O)c(c1)Oc1ccc(cc1)CC1c2c(cc(O)c(c2O4)O3)CCN1C (stereo not drawn)
inactive: dose: 7.5 mg/kg/injection, schedule: Q01DX009 (ip), vehicle: saline with Tween-80 90 % of control

Nc1nc2nsnc2nc1N
inactive: dose: 1.56 mg/kg/injection, schedule: Q01DX009 (ip), vehicle: water 111 % of control | dose: 3.12 mg/kg/injection, schedule: Q01DX009 (ip), vehicle: water 111 % of control | [2] 100 % of control | dose: 6.25 mg/kg/injection, schedule: Q01DX009 (ip), vehicle: water 100 % of control | [3] 110 % of control | dose: 12.5 mg/kg/injection, schedule: Q01DX009 (ip), vehicle: water 100 % of control | [4] 100 % of control | [5] 102 % of control | [6] 110 % of control | [7] 111 % of control | [8] 115 % of control | [9] 118 % of control

O=C(O)/C(=C/c1ccc(Cl)cc1)c1ccccc1
inactive: [10] 91 % of control | [11] 94 % of control

[N-]=[N+]=NCC(=O)NCc1cnccn1
inactive: dose: 12.5 mg/kg/injection, schedule: Q01DX009 (ip), vehicle: saline 116 % of control | dose: 25.0 mg/kg/injection, schedule: Q01DX009 (ip), vehicle: saline 116 % of control | [14] 106 % of control | [13] 109 % of control | [15] 116 % of control | dose: 200.0 mg/kg/injection, schedule: Q04DX003 (ip), vehicle: saline 108 % of control | dose: 400.0 mg/kg/injection, schedule: Q01DX009 (ip), vehicle: saline 119 % of control | dose: 400.0 mg/kg/injection, schedule: Q04DX003 (ip), vehicle: saline 109 % of control

COc1cccc2c1C(=O)c1c(O)c3c(c(O)c1C2=O)CC(O)(C(=O)CO)CC3OC1CC(N)C(O)C(C)O1 (stereo not drawn) (tested in a mixture with another compound)
inactive: dose: 1.56 mg/kg/injection, schedule: Q01DX009 (ip), vehicle: other 118 % of control | dose: 3.13 mg/kg/injection, schedule: Q01DX009 (ip), vehicle: other 106 % of control | dose: 6.25 mg/kg/injection, schedule: Q01DX009 (ip), vehicle: other 93 % of control | dose: 12.5 mg/kg/injection, schedule: Q01DX009 (ip), vehicle: other 108 % of control
